Results from patent publication US8735360B2 (priority 2009, dated 2014).
Positions of bridges follow the written chain, without caps; N, C: chain ends. Residues, ends and D or L forms follow the SMILES beside them.

What follows are compounds tested against GC-C (Homo sapiens, UniProt P25092). Settings: cGMP response in T84 cells.
Type: cell-based

Sequence of GC-C (P25092 24-1073 limits assumed): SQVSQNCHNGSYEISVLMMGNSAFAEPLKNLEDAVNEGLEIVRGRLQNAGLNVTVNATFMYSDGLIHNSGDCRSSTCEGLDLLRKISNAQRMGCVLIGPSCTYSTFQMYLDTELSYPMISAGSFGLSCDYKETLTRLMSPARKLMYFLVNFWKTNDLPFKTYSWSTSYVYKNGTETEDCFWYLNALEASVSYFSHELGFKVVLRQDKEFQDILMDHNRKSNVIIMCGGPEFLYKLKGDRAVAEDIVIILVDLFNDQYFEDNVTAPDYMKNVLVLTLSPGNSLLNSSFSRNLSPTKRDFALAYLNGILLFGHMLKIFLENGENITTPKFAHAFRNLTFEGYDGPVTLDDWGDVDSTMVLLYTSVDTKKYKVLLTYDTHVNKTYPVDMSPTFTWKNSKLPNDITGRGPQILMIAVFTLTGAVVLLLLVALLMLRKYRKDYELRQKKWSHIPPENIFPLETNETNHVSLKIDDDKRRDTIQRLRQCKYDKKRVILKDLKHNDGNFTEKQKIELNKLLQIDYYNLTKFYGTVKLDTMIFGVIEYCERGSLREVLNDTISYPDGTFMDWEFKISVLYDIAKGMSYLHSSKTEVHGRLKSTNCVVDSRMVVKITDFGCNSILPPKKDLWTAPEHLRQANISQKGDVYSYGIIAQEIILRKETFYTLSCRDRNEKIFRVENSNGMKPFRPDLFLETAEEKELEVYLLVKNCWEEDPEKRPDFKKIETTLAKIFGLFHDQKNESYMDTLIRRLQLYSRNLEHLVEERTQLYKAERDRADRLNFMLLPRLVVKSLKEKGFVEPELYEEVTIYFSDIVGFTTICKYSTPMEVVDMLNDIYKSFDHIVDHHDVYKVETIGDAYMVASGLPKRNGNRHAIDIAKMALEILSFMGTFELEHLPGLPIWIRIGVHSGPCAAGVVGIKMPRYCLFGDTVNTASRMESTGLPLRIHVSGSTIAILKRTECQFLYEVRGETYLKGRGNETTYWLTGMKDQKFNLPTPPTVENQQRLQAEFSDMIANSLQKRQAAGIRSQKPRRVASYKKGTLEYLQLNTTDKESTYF

Structure (SMILES)	Ratio EC50 pH 8/EC50 pH 5
C[C@@H]1NC(=O)[C@@H]2CCCN2C(=O)[C@H](CC(N)=O)NC(=O)[C@@H]2CSSC[C@H](NC(=O)[C@H](CC(=O)O)NC(=O)[C@H](CC(=O)O)NC(=O)CN)C(=O)N[C@H]3CSSC[C@H](NC1=O)C(=O)N[C@@H]([C@@H](C)O)C(=O)NCC(=O)N[C@H](C(=O)N[C@@H](Cc1ccc(O)cc1)C(=O)O)CSSC[C@H](NC(=O)[C@H](Cc1ccc(O)cc1)NC(=O)[C@H](CCC(=O)O)NC3=O)C(=O)N2 [Peptide 7, GDDCCEYCCNPACTGCY] (H-GDDCCEYCCNPACTGCY-OH; disulfide 4-9, 5-13, 8-16 (inferred); N-terminus and C-terminus assumed)	383
C[C@@H]1NC(=O)[C@@H]2CCCN2C(=O)[C@H](CC(N)=O)NC(=O)[C@@H]2CSSC[C@H](NC(=O)[C@H](CC(=O)O)NC(=O)[C@H](CC(=O)O)NC(=O)[C@@H]3CCCN3)C(=O)N[C@H]3CSSC[C@H](NC1=O)C(=O)N[C@@H]([C@@H](C)O)C(=O)NCC(=O)N[C@H](C(=O)N[C@@H](Cc1ccc(O)cc1)C(=O)O)CSSC[C@H](NC(=O)[C@H](Cc1ccc(O)cc1)NC(=O)[C@H](CCC(=O)O)NC3=O)C(=O)N2 [Peptide 8, PDDCCEYCCNPACTGCY] (H-PDDCCEYCCNPACTGCY-OH; disulfide 4-9, 5-13, 8-16)	58.2
CC(C)C[C@@H]1NC(=O)[C@H](CCC(=O)O)NC(=O)[C@@H]2CSSC[C@@H]3NC(=O)[C@H](C)NC(=O)[C@@H]4CCCN4C(=O)[C@H](CC(N)=O)NC(=O)[C@H](CSSC[C@H](NC(=O)[C@H](CC(=O)O)NC(=O)[C@H](CC(=O)O)NC(=O)[C@H](C)N)C(=O)N2)NC(=O)[C@H](CSSC[C@@H](C(=O)N[C@@H](Cc2ccc(O)cc2)C(=O)O)NC(=O)CNC(=O)[C@H]([C@@H](C)O)NC3=O)NC1=O [Peptide 13, ADDCCELCCNPACTGCY]	62.5
CC(C)C[C@@H]1NC(=O)[C@H](CCC(=O)O)NC(=O)[C@@H]2CSSC[C@@H]3NC(=O)[C@H](C)NC(=O)[C@@H]4CCCN4C(=O)[C@H](CC(N)=O)NC(=O)[C@H](CSSC[C@H](NC(=O)[C@H](CC(=O)O)NC(=O)[C@@H](N)CC(=O)O)C(=O)N2)NC(=O)[C@H](CSSC[C@@H](C(=O)N[C@@H](Cc2ccc(O)cc2)C(=O)O)NC(=O)CNC(=O)[C@H]([C@@H](C)O)NC3=O)NC1=O [Peptide 16, DDCCELCCNPACTGCY] (H-DDCCELCCNPACTGCY-OH; disulfide 3-8, 4-12, 7-15 (inferred); N-terminus and C-terminus assumed)	26.9
CC(C)C[C@@H]1NC(=O)[C@H](CCC(=O)O)NC(=O)[C@@H]2CSSC[C@@H]3NC(=O)[C@H](C)NC(=O)[C@@H]4CCCN4C(=O)[C@H](CC(N)=O)NC(=O)[C@H](CSSC[C@H](NC(=O)[C@H](CC(=O)O)NC(=O)[C@H](CC(=O)O)NC(=O)[C@@H]4CCCN4)C(=O)N2)NC(=O)[C@H](CSSC[C@@H](C(=O)N[C@@H](Cc2ccc(O)cc2)C(=O)O)NC(=O)CNC(=O)[C@H]([C@@H](C)O)NC3=O)NC1=O [Peptide 18, PDDCCELCCNPACTGCY] (H-PDDCCELCCNPACTGCY-OH; disulfide 4-9, 5-13, 8-16 (inferred); N-terminus and C-terminus assumed)	205.2
CC(C)C[C@@H]1NC(=O)[C@H](CCC(=O)O)NC(=O)[C@@H]2CSSC[C@@H]3NC(=O)[C@H](C)NC(=O)[C@@H]4CCCN4C(=O)[C@H](CC(N)=O)NC(=O)[C@H](CSSC[C@H](NC(=O)[C@H](CC(=O)O)NC(=O)[C@H](CC(=O)O)NC(=O)CN)C(=O)N2)NC(=O)[C@H](CSSC[C@@H](C(=O)N[C@@H](Cc2ccc(O)cc2)C(=O)O)NC(=O)CNC(=O)[C@H]([C@@H](C)O)NC3=O)NC1=O [Peptide 19, GDDCCELCCNPACTGCY] (H-GDDCCELCCNPACTGCY-OH; disulfide 4-9, 5-13, 8-16 (inferred); N-terminus and C-terminus assumed)	61.5
